Where a name gives a salt, the structure may show the parent alone.
Each molecule was assayed on Cdc7 (pS53MCM2 levels in SW48 cells) (assay: Cdc7 Cell Pharmacodynamics Assay Method 3: pS53MCM2 levels in SW48 cells, 6 hours). Details: Homo sapiens, SW48, 6 h, read-out: Biomarker Method 3 (pEC50) (converted).
Format: cell-based

| EC50 | SMILES |
| --- | --- |
| 4070 nM | O=c1[nH]c(-c2ccncc2)nc(N2CCN[C@H](C(F)(F)F)C2)c1Cl [Compound 139] |
| 79.4 nM | C[C@@H]1CNCCN1c1nc(-c2ccnc(F)c2)[nH]c(=O)c1Cl [Compound 323] |
| 339 nM | O=c1[nH]c(-c2ccncc2)nc(N2CCN[C@@H](C(F)(F)F)C2)c1Cl [Compound 180] |
| 145 nM | O=c1[nH]c(-c2ccnc(F)c2)nc(N2CCNCC(F)(F)C2)c1Cl [Compound 312, 5-chloro-4-(6,6-difluoro-1,4-diazepan-1-yl)-2-(2-fluoro-4-pyridyl)-1H-pyrimidin-6-one hydrochloride] |
| 589 nM | O=c1[nH]c(-c2ccnc(F)c2)nc(N2CCCC(F)(F)C2)c1Cl [Compound 90, 5-chloro-4-(3,3-difluoro-1-piperidyl)-2-(2-fluoro-4-pyridyl)-1H-pyrimidin-6-one] |

From patent publication US10919896B2, “Preparation and uses of pyrimidinone derivatives” (Cancer Research Technology Limited, priority 2016, dated 2021)
